From BindingDB's records for doi:10.1016/j.bmcl.2006.01.061 (Institute of Genomics and Integrative Biology, 2006)
Square brackets hold non-standard residues; d marks the D form. Peptide text beside a SMILES is read from it. Trp(5-OH) = N[C@@H](Cc1c[nH]c2ccc(O)cc12)C(=O)O; NMeW = CN[C@@H](Cc1c[nH]c2ccccc12)C(=O)O; Orn = NCCC[C@H](N)C(=O)O

Molecular target: Angiotensin-converting enzyme (Bos taurus)
Assay: Inhibition of ACE in bovine kidney

Row | IC50 [µM] | Structure (SMILES)
1 | 4 | NCCC[C@H](NC(=O)[C@@H](N)Cc1c[nH]c2ccc(O)cc12)C(=O)N1CCC[C@H]1C(=O)O [HTP-Orn-Pro] (H-[Trp(5-OH)]-[Orn]-Pro-OH)
2 | 10 | NCCC[C@H](NC(=O)CCc1nc2ccccc2[nH]1)C(=O)N1CCC[C@H]1C(=O)O [BPA-Lys-Pro]
3 | 10 | CN[C@@H](Cc1c[nH]c2ccccc12)C(=O)N[C@@H](CCCN)C(=O)N1CCC[C@H]1C(=O)O [MTP-Orn-Pro] (H-[NMeW]-[Orn]-Pro-OH)
